Reference: PMC8228600, “Design, Synthesis, In Vitro and In Vivo Evaluation of Heterobivalent SiFAlin-Modified Peptidic Radioligands Targeting Both Integrin αvβ3 and the MC1 Receptor—Suitable for the Specific Visualization of Melanomas?” (Pharmaceuticals, 2021)
Where two headings read alike, the source gives them in different places.

Assays:
[1] = Ex vivo biodistribution in tumor-bearing nude mice (non-tumor tissues); settings: male, Balb/cAnNRj-Foxn1nu/nu (nude), mouse, iv, total radioactivity, ex vivo after PET/CT scan, i.v., n = 3
Procedure: (§1) For the evaluation of the in vivo pharmacokinetics, the two most promising HBPLs—[^18F]2 with the highest affinity to both target receptors and [^18F]4 with the highest hydrophilicity and still reasonable binding affinities—were selected. For PET/CT imaging, 6-week-old male nude mice (Balb/cAnNRj-Foxn1^nu/nu) were subcutaneously injected with 5 × 10^5 B16F10 cells into the right flank and 2.0–2.5 × 10^6 U87MG cells into the left flank to generate the respective receptor-positive tumors. When the tumors reached a sufficient size for imaging, each mouse was administered 4.15 ± 2.28 MBq of [^18F]2 or 3.95 ± 2.06 MBq of [^18F]4 via the lateral tail vein under isoflurane anesthesia. To determine the receptor specificity of both peptide parts of the labeled HBPLs and their relative contribution to overall tumor uptake, blocking experiments were also performed. […] After i.v. injection of the tracers, a dynamic PET scan, followed by a CT scan, was performed. The resulting PET/CT images and time–activity curves (TACs) are depicted in Figure 6, Figure 7 and Figure 8. After completion of the diagnostic scans, the mice were sacrificed, their organs (blood, spleen, liver, kidney, pancreas, lung, heart, brain, bone, muscle, tail, tumors, stomach, colon and small intestine) were collected and measured in a γ-counter for ex vivo biodistribution (see Supplementary Materials Table S1 for detailed results).
(§2) Each male nude mouse (six weeks old) was injected subcutaneously with 5 × 10^5 B16F10 cells into the right flank and 2.0–2.5 × 10^6 U87MG cells into the left flank. The health status and tumor growth of the mice were monitored regularly until the animals could be examined after 15–21 days, depending on the tumor size. For the in vivo experiments, the ^18F-radiolabeled compound was diluted in 0.9% saline to give a final EtOH concentration of <10%. Each mouse was injected with 4.15 ± 2.28 MBq of [^18F]2 or 3.95 ± 2.06 MBq of [^18F]4 via the lateral tail vein under isoflurane anesthesia. […] Each ^18F-labeled compound was studied with or without blocking in at least three mice. Mice were measured under isoflurane anesthesia in a small PET/SPECT/CT animal imaging system. First, a dynamic PET scan was performed over 90 min and the scan was framed in 29 timeframes (10 × 1 min, 10 × 2 min, 6 × 5 min, 3 × 10 min). Images were reconstructed using 12 iterations, a maximum likelihood expectation maximization (MLEM) algorithm including corrections for scattered radiation and decay and a voxel size of 0.5 mm. All PET scans were immediately followed by CT acquisition at a voltage of 45 kV and a current of 400 μA. The images were reconstructed using the filtered back projection (FBP) algorithm with a voxel size of 250 μm. The analysis of the data, including the generation of TACs of the kidneys, liver and tumors and the MIPs, was performed via PMOD (v3.8). For ex vivo biodistribution, the mice were sacrificed directly after the PET/CT scan. Organs (blood, spleen, liver, kidneys, pancreas, lungs, heart, brain, bone, muscle, tail, tumors, stomach, colon and small intestine) were collected, weighed and their radioactivity measured in a γ-counter. The percentage injected dose per gram (% ID/g) of each tissue was calculated from the determined values, organ weights, reference values and injected activity.

[2] = tested on: MC1R-positive B16F10 tumors; experiment: Ex vivo biodistribution: uptake in B16F10 tumors and tumor-to-organ ratios; design: species or system nude mice (Balb/cAnNRj-Foxn1nu/nu); settings: NDP blocking (20 μg coinjected); ex vivo after PET/CT scan; i.v.; n = 3
Procedure: as §1, §2

[3] = as above; design: species or system nude mice (Balb/cAnNRj-Foxn1nu/nu); settings: male, Balb/cAnNRj-Foxn1nu/nu (nude), mouse, iv, total radioactivity; for tissue uptake: B16F10 tumor (MC1R-positive); for tissue to tissue ratio: ex vivo biodistribution, mean (n = 3) ± SD
Procedure: as §1, §2

B16F10 and U87MG tumors = experiment: In vivo dynamic PET/CT imaging and time–activity curves; design: species or system nude mice (Balb/cAnNRj-Foxn1nu/nu)
Procedure: as §1
Briefly, 4–5-week-old male nude mice (Balb/cAnNRj-Foxn1^nu/nu) were obtained from Janvier. A dynamic PET scan over 90 min and a subsequent CT image over 20 min were acquired using a triple-modality Bruker Albira II small-animal PET/CT/SPECT scanner. Three animals were studied per group.
as §2

CCCC[C@H](NC(=O)CNC(=O)CNC(=O)CCOCCOCCOCCOCCOCCOCCOCCOCCOCCC(=O)NCCCN(CCCNC(=O)CCOCCOCCOCCOCCOCCOCCOCCOCCOCCC(=O)NCCCC[C@@H]1NC(=O)[C@@H](Cc2ccccc2)NC(=O)[C@H](CC(=O)O)NC(=O)CNC(=O)[C@H](CCCNC(=N)N)NC1=O)CC(=O)N[C@@H](CCCCNC(=O)CCC[N+](C)(C)Cc1ccc([Si](F)(C(C)(C)C)C(C)(C)C)cc1)C(N)=O)C(=O)N[C@H]1CC(=O)NCCCC[C@@H](C(N)=O)NC(=O)[C@H](Cc2c[nH]c3ccccc23)NC(=O)[C@H](CCCNC(=N)N)NC(=O)[C@@H](Cc2ccccc2)NC(=O)[C@H](Cc2c[nH]cn2)NC1=O [[^18F]4]
tissue uptake at 1.5 h ([1]; muscle, double blocking (NDP + c(RGDyK)), read-out: ID/g, muscle): 2.58 ± 1.28 %ID/g
tissue uptake at 1.5 h ([1]; muscle, without blocking, read-out: ID/g, muscle): 0.07 ± 0.02 %ID/g
tissue uptake at 1.5 h ([1]; pancreas, NDP blocking (20 μg coinjected), read-out: ID/g, pancreas): 0.52 ± 0.12 %ID/g
tissue uptake at 1.5 h ([1]; pancreas, c(RGDyK) blocking (200 μg coinjected), read-out: ID/g, pancreas): 0.66 ± 0.19 %ID/g
tissue uptake at 1.5 h ([1]; pancreas, double blocking (NDP + c(RGDyK)), read-out: ID/g, pancreas): 0.32 ± 0.04 %ID/g
tissue uptake at 1.5 h ([1]; pancreas, without blocking, read-out: ID/g, pancreas): 0.25 ± 0.08 %ID/g
tissue uptake ([1]; small intestine, NDP blocking (20 μg coinjected), read-out: ID/g, small intestine): 1.6 ± 0.26 %ID/g
tissue uptake ([1]; small intestine, c(RGDyK) blocking (200 μg coinjected), read-out: ID/g, small intestine): 1.46 ± 0.53 %ID/g
tissue uptake ([1]; small intestine, double blocking (NDP + c(RGDyK)), read-out: ID/g, small intestine): 0.54 ± 0.08 %ID/g
tissue uptake ([1]; small intestine, without blocking, read-out: ID/g, small intestine): 0.07 ± 0.02 %ID/g
tissue uptake ([1]; spleen, NDP blocking (20 μg coinjected), read-out: ID/g, spleen): 1.51 ± 0.15 %ID/g
tissue uptake ([1]; spleen, c(RGDyK) blocking (200 μg coinjected), read-out: ID/g, spleen): 1.71 ± 0.62 %ID/g
tissue uptake ([1]; spleen, double blocking (NDP + c(RGDyK)), read-out: ID/g, spleen): 0.69 ± 0.1 %ID/g
tissue uptake ([1]; spleen, without blocking, read-out: ID/g, spleen): 1.79 ± 0.31 %ID/g
tissue uptake ([1]; stomach, NDP blocking (20 μg coinjected), read-out: ID/g, stomach): 1.03 ± 0.11 %ID/g
tissue uptake ([1]; stomach, c(RGDyK) blocking (200 μg coinjected), read-out: ID/g, stomach): 0.99 ± 0.16 %ID/g
tissue uptake ([1]; stomach, double blocking (NDP + c(RGDyK)), read-out: ID/g, stomach): 0.42 ± 0.03 %ID/g
tissue uptake ([1]; stomach, without blocking, read-out: ID/g, stomach): 0.38 ± 0.13 %ID/g
tissue uptake at 1.5 h ([1]; tail, NDP blocking (20 μg coinjected), read-out: ID/g, tail): 52.8 ± 5.59 %ID/g
tissue uptake at 1.5 h ([1]; tail, c(RGDyK) blocking (200 μg coinjected), read-out: ID/g, tail): 44.3 ± 12.1 %ID/g
tissue uptake ([1]; tail, double blocking (NDP + c(RGDyK)), read-out: ID/g, tail): 55.6 ± 7.12 %ID/g
tissue uptake at 1.5 h ([1]; tail, without blocking, read-out: ID/g, tail): 25.3 ± 8.43 %ID/g
ID/g, B16F10 tumor [2]: 1.33 ± 0.27 % ID/g
tissue uptake ([3]; NDP blocking (20 μg coinjected), ex vivo after PET/CT scan, i.v., n = 3): 1.33 ± 0.27 %ID/g
tissue uptake ([3]; c(RGDyK) blocking (200 μg coinjected), ex vivo after PET/CT scan, i.v., n = 3): 2.29 ± 0.24 %ID/g
tissue uptake ([3]; double blocking (NDP + c(RGDyK)), ex vivo after PET/CT scan, i.v., n = 3): 2.49 ± 0.09 %ID/g
tissue uptake ([3]; without blocking, ex vivo after PET/CT scan, i.v., n = 3): 2.58 ± 0.86 %ID/g
tissue to tissue ratio ([3]; B16F10 tumor / blood, without blocking, read-out: tumor/blood ratio, B16F10): 4.36 ± 1.37
tissue to tissue ratio ([3]; B16F10 tumor / kidneys, without blocking, read-out: tumor/kidneys ratio, B16F10): 0.38 ± 0.24
tissue to tissue ratio ([3]; B16F10 tumor / liver, without blocking, read-out: tumor/liver ratio, B16F10): 0.36 ± 0.23
tissue to tissue ratio ([3]; B16F10 tumor / muscle, without blocking, read-out: tumor/muscle ratio, B16F10): 38.6 ± 9.24
tissue uptake at 1.5 h ([3]; B16F10 tumor, without blocking, ex vivo after PET/CT scan, i.v., n = 3): 2.58 ± 0.86 %ID/g
visualization of B16F10 and U87MG tumors by PET/CT (B16F10 and U87MG tumors; PET/CT scans, MIPs 50–90 min post-injection): clearly visualize
time at which uptakes in kidneys and liver reached their maximum (TACs) (B16F10 and U87MG tumors; dynamic PET over 90 min, i.v.): 5 to 10 min
time at which the curves of both tumors approached a plateau (TACs) (B16F10 and U87MG tumors; dynamic PET over 90 min, i.v., B16F10 and U87MG tumors): about 70 min
